This is an account of results in patent US12085575B2, “Compositions and methods for detecting proteinopathies” (BOARD OF SUPERVISORS OF LOUISIANA STATE UNIVERSITY AND …, priority 2011, dated 2024).

Each structure is given as a SMILES string. Residues, ends and D or L forms follow the SMILES beside them. *: point of attachment. Cbz = O=C(OCc1ccccc1)*

Common to all, as to format: cell-based, human
In assay [1] the test system is LC3 and p62. Nature of the assay: UV-induced degradation of autophagy substrates LC3 and p62 (Western blot). The method, then:
Immunoblotting and immunofluorescence analysis: Immunoblotting analysis of proteins in cultured cells: Cells ([…]) were cultured in 35 mm tissue culture plates. After various experimental treatments, cells were lysed using an SDS-PAGE sample buffer. Cell lysates were then analyzed by SDS-PAGE (10% for p62 or 15% for LC3 and polyubiquitin conjugates) and immunoblotting analysis using either anti-ISG15 (raised against human ISG15 (23)), anti-ubiquitin (Sigma-Aldrich), anti-HA (gift from Dr. Walworth at Robert Wood Johnson Medical School/University of Medicine and Dentistry of New Jersey; Piscataway, NJ)), anti-LC3 (MBL International Corporation; Woburn, MA), or p62 (Sigma-Aldrich) antibodies, as indicated, using the ECL Western procedure (Pierce) and the BioRad VersaDoc Imaging System.
Because degradation of proteasome substrates is deregulated in A-T cells, the degradation of the autophagy substrates (autophagic flux) LC3 and p62 was assessed in UV-exposed A-T and ATM+ cells (55). For FIGS. 10A-10D, A-T and ATM+ cells were treated with Bafl (1 nM for 18 h) and then exposed to UV as indicated (25 mJ/m2). Three hours after recovery in the presence of inhibitors, cells were lysed. Cell lysates were analyzed by Western blotting for LC3 (FIG. 10A), p62 […], and actin (lower panels in FIGS. 10A and 10C) using their specific antibodies. Intensity of the total LC3 (LC3-I+II) and p62 proteins was quantitated using BioRad Quantity One software, and the results shown in FIGS. 10B and 10D, respectively. […] show average values (±SEM) of % degradation of LC3 and p62 from three independent experiments. All control values (−UV and +Bafl) are normalized to 100%, and values for experimental treatments were expressed as percent variations over control
UV induces aberrant degradation of autophagy substrate LC3 in A-T cells and brain slices. In FIG. 19A, LC3 degradation in UV-treated A-T cells is shown. […] Intensities of the total LC3 bands were quantitated using BioRad Quantity One software.

Assay [2] has as its system autophagosomes and autophagolysosomes. Nature of the assay: Cyt-ID and LysoTracker Red staining of autophagosomes, lysosomes and autophagolysosomes. To be noted: for fusion between autophagosomes and lysosomes: Bafl 1 nM 18 h; for mean # of green dots/cell (autophagosomes) / mean # of yellow dots/cell (autophagolysosomes): A-T/control shRNA cells, bafilomycin treated. As to the method: Autophagasome, lysosome and autophagolysosomes staining. Cells (100,000/point) were cultured on fibronectin-coated glass coverslips. Cells were treated with autophagy inhibitor Bafl (1 nM) (Sigma-Aldrich) for 18 hr. Cells were then exposed to UV radiation and allowed to recover in the presence of inhibitors for 3 h. Cells were then washed (2×1 min) with PBS and co-stained with Cyt-ID® (Cyt-ID® Autophagy Detection Kit from Enzo Lifesciences; Farmingdale, NY) and Lyso Tracker® Red DND-99 (Invitrogen) for 30 min at 37° C. in a CO2 incubator following manufacturer's protocol. Stained cells were then washed (2×1 min) with PBS and fixed with 4% paraformaldehyde for 20 min at room temperature. After washing with PBS (3×10 min), cells were mounted on slides in anti-fade mounting medium with DAPI (Invitrogen). Images were taken using a 63× oil immersion objective with a Leica DMRA2 upright microscope run through SlideBook software (Intelligent Imaging Innovations).
Autophagic flux was also monitored using Cyto-ID® and LysoTrack Red dyes. A-T and ATM+ cells were treated with Bafl (1 nM for 18 h) and then exposed to UV (25 mJ/m2) as indicated. Three hours after recovery in the presence of inhibitors, cells were co-stained with Cyt-ID® and LysoTracker Red® dyes. Fluorescence images of Cyt-ID® and LysoTracker Red® stained cells were made (Color images not shown). Green (autophagosomes; from Cyt-TD®-stained panels), red (lysosomes; from LysoTracker Red-stained panels), and yellow (autophagolysosomes; from merged panels) dots in A-T and ATM+ cells were counted manually using the ImageJ plug-in Cell Counter. Mean number of dots/cell is shown in FIGS. 11A and 11B, respectively. In FIGS. 11A and 11B, the number of autophagosomes (green dots) is represented by stippled bars; the number of lysosomes (red dots) is presented by lined bar; and the number of autophagolysosomes (yellow dots) is represented by clear (white) bars.
Bafilomycin inhibits autophagy at a late stage (47). Whether 3-methyl adenine (3-MA), an autophagy inhibitor known to inhibit autophagy at early stage by inhibiting formation of autophagosomes (56), could block UV-induced autophagic flux was tested in A-T/LV-control shRNA cells. Using Cyto-ID® and LysoTrack Red dyes as described herein in FIGS. 9A, 9B, 11A and 11B, the same criteria were used to judge autophagic activity in immunofluorescence analysis as described for FIGS. 11A and 11B.
The effect of 3-MA on UV-induced autophagic flux was tested in A-T/LV-ISG15 shRNA cells. A-T/LV-ISG15 shRNA cells were either left untreated or treated with 3-MA (10 nM for 18 h), and cells were then exposed to UV (25 mJ/m2). Three hours after recovery in the presence of the inhibitor, cells were co-stained with Cyt-ID® and LysoTracker Red® dyes. Fluorescence images of Cyt-ID® and LysoTracker Red® stained cells were made.

The subject of assay [3] is HA-polyubiquitylated proteins. The assay can be described thus: UV-induced degradation of HA-polyubiquitylated proteins (anti-HA Western blot). Particulars: A-T cells; 50 nM Bafl.
Assay [4] deals with p53. Nature of the assay: p53 turnover with CHX with or without MG132. To be noted: ATM+ cells, MG132 10 μM, CHX 10 μg/ml, 6 hours. The method, then:
Both p53 and STAT3 are known targets of the ubiquitin/26S proteasome pathway. To determine whether steady state level of these proteins is regulated by ATM, turnover of both p53 and STAT3 were measured. In FIG. 2C, FT169A (A-T) and FT169A (ATM+) cells were treated with the protein synthesis inhibitor CHX (10 μg/ml) in the presence (lanes 3 and 6) or absence (lanes 2 and 5) of the proteasome inhibitor MG132 (10 μM) for 6 hours. Cell lysates were analyzed by immunoblotting using an anti-p53 antibody (upper row). The intensity of the p53 bands was measured using a Kodak Image station 2000R […]. Results are shown in the bar graph (right panel). The filter used for immunoblotting was stained with Ponceau S to assure equal protein loading (lower row). […] By contrast, p53 protein was rapidly degraded within 6 hours of CHX treatment in FT169A (ATM+) cells (FIG. 2C, lanes 4 and 5, and bar graph for p53 band quantization).

With `CO/C1=C\C(C)=C\[C@@H](C)[C@@H](O)[C@@H](C)C/C(C)=C/C=C/[C@H](OC)[C@@H]([C@@H](C)[C@@H](O)[C@H](C)[C@@]2(O)C[C@@H](O)[C@H](C)[C@@H](C(C)C)O2)OC1=O` [Bafilomycin A1], the “UV-mediated degradation of LC3 and p62” value in assay [1] (A-T cells, Bafl 1 nM 18 h, UV 25 mJ/m2) was “failed to protect”. For the same compound, the “LC3 and p62 levels” value in assay [1] (ATM+ cells treated with UV in the absence or presence of Bafl) is recorded as “no apparent changes”. Also, the “UV-induced autophagic flux (LC3 degradation)” value in assay [1] (ATM+ cells, Bafilomycin A1 1 nM 18 h, UV 25 mJ) is “protected”. The “fusion between autophagosomes and lysosomes” value in assay [2] (A-T cells) is reported as “failed to do so”; in assay [2] (ATM+ cells), “blocked fusion”. In addition, the “mean # of green dots/cell (autophagosomes)” value is listed as 0.8 dots/cell in assay [2] (with UV) and 6 dots/cell in assay [2] (without UV). For the same compound, the results for the “mean # of yellow dots/cell (autophagolysosomes)” value in assay [2] (with UV) and in assay [2] (without UV) were 1.5 dots/cell and 5.8 dots/cell, respectively. Besides, the “UV-induced degradation of cellular proteins” value in assay [3] is recorded as “failed to protect”.

On to `CC(C)C[C@@H](C=O)NC(=O)[C@H](CC(C)C)NC(=O)[C@H](CC(C)C)NC(=O)OCc1ccccc1` [MG132] (Cbz-Leu-Leu-Leu-aldehyde), for which the “turnover of p53 in the presence of CHX” value in assay [4] was “blocked”.
